Test results: patent EP4725941A1, “ARYLAMIDE DERIVATIVE HAVING ANTITUMOR ACTIVITY” (priority 2020, dated 2021)
Where two headings read alike, the source gives them in different places.

Key:
Calu-6 = assay: Cell proliferation-inhibiting activity (ATP in viable cells, CellTiter-Glo), Calu-6; format: cell-based, human; conditions: read-out: Calu-6 IC50
A549 = assay: Cell proliferation-inhibiting activity (ATP in viable cells, CellTiter-Glo), A549; format: cell-based, human; conditions: human lung cancer cells, 4 days, read-out: A549 IC50
NCI-H2122 = assay: Cell proliferation-inhibiting activity (ATP in viable cells, CellTiter-Glo), NCI-H2122; format: cell-based, human; conditions: read-out: NCI-H2122 IC50
[1] = Human liver microsome stability; format: in vitro ADME; conditions: human liver microsomes, pH 7.4
BRAF = molecular target: T1, BRAF (Homo sapiens, UniProt P15056); assay: BRAF-inhibiting activity, time-resolved fluorescence-fluorescence resonance energy transfer assay; format: biochemical
T1 construct: purchased Eurofins Genomics KK; (BRAF); Thermo Fisher Scientific Inc. (MEK1)
T1 sequence (P15056 417-766 limits assumed): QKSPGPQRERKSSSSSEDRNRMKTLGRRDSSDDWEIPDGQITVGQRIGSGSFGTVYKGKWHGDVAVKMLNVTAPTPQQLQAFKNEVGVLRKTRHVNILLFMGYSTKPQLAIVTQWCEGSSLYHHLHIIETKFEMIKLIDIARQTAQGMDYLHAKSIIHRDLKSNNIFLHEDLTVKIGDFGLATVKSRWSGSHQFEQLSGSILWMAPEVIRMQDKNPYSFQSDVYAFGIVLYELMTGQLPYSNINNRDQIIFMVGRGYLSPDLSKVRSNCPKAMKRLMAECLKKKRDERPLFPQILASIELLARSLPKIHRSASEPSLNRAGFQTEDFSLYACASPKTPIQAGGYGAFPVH
Method: The BRAF-inhibiting activity of the compounds listed in Table 3 below was evaluated by the time-resolved fluorescence-fluorescence resonance energy transfer assay as described below.

MEK1 = molecular target: T2, MEK1 (Homo sapiens, UniProt Q02750); assay: MEK1-inhibiting activity, fluorescent polarization method (CRAF/MEK1/ERK2 cascade, IMAP); format: biochemical
T2 construct: purchased Thermo Fisher Scientific Inc. (MEK1, CRAF); Carna Biosciences, Inc. (ERK2)
T2 sequence (Q02750 whole entry): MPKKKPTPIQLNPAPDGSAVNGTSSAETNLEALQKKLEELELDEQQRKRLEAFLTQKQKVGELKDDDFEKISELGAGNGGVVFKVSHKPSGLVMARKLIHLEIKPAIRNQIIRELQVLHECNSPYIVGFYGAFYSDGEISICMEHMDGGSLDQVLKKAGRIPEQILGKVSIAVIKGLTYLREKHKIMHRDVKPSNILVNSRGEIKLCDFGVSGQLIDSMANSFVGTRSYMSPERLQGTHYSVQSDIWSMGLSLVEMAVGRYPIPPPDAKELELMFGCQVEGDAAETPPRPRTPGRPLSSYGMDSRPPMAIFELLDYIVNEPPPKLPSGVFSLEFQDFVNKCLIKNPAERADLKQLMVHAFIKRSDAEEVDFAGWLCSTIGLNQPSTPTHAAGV
Method: The MEK1-inhibiting activity of the compounds listed in Table 3 below were evaluated by the fluorescent polarization method as described below.

[2] = Calu-6, 96 h, human lung cancer cells, 4 days
[3] = NCI-H2122, 96 h, human lung cancer cells, 4 days
[4] = human lung cancer cells, 4 days

Row | SMILES | IC50 (Calu-6; [2]) [nM] | IC50 (A549; A549, 96 h) [nM] | IC50 (NCI-H2122; [3]) [nM] | microsomal CLint at 0.99 µM [1] [µL/min/mg] | IC50 (BRAF; read-out: BRAF IC50; Table 3) [nM] | IC50 (MEK1; Table 3, read-out: MEK1 IC50) [nM] | IC50 (BRAF; Table 3; read-out: BRAF IC50) [nM] | IC50 (MEK1) [nM] | IC50 (Calu-6; Homo sapiens, Calu-6, 96 h) [nM] | IC50 (NCI-H2122; Homo sapiens, NCI-H2122, 96 h) [nM] | IC50 (Calu-6; [4]) [nM] | IC50 (A549) [nM] | IC50 (NCI-H2122; [4]) [nM]
1 | CNS(=O)(=O)Nc1nccc(Cc2cc(C(=O)NC3CC3C)c(Nc3ccc(I)cc3F)c(F)c2F)c1F (mixture of isomers) [Compound B-3, 3,4-Difluoro-2-(2-fluoro-4-iodoanilino)-5-[[3-fluoro-2-(methylsulfamoylamino)pyridin-4-yl]methyl]-N-(2-methylcyclopropyl)benzamide (mixture of 4 isomers)] | 14 | 2 | 1 | 22 | 4 | 82 |  |  |  |  |  |  | 
2 | CNS(=O)(=O)Nc1nccc(Cc2cc(C(=O)N[C@H]3C[C@H]3C)c(Nc3ccc(I)cc3F)c(F)c2F)c1F (racemic) [Compound B-4, 3,4-Difluoro-2-(2-fluoro-4-iodoanilino)-5-[[3-fluoro-2-(methylsulfamoylamino)pyridin-4-yl]methyl]-N-[(1S, 2R)-(+/-)-2-methylcyclopropyl]benzamide (racemate)] | 6 | 2 | 1 | 28 |  |  | 5 | 19 |  |  |  |  | 
3 | CCS(=O)(=O)Nc1nccc(Cc2cc(C(=O)NC3CC3)c(Nc3ccc(I)cc3F)c(F)c2F)c1F [Compound A-39] | 79 | 30 | 7 |  | 14 | 41 |  |  |  |  |  |  | 
4 | CNS(=O)(=O)Nc1cccc(Cc2cc(C(=O)NOC)c(Nc3ccc(I)cc3F)c(F)c2F)c1F [Compound D-11, 3,4-Difluoro-2-(2-fluoro-4-iodoanilino)-5-[[2-fluoro-3-(methylsulfamoylamino)phenyl]methyl]-N-methoxybenzamide] | 2 |  | 0.3 | 24 | 3 | 6 |  |  |  |  |  |  | 
5 | CONC(=O)c1cc(Cc2cccc(NS(N)(=O)=O)c2F)c(F)c(F)c1Nc1ccc(I)cc1F [Compound D-12, 3,4-Difluoro-2-(2-fluoro-4-iodoanilino)-5-[[2-fluoro-3-(sulfamoylamino)phenyl]methyl]-N-methoxybenzamide] | 6 |  | 0.4 | 18 | 14 | 15 |  |  |  |  |  |  | 
6 | CONC(=O)c1cc(Cc2cccc(NS(=O)(=O)NC3(C)CCC3)c2F)c(F)c(F)c1Nc1ccc(I)cc1F [Compound D-13, 3,4-Difluoro-2-(2-fluoro-4-iodoanilino)-5-[[2-fluoro-3-[(1-methylcyclobutyl)sulfamoylamino]phenyl]methyl]-N-methoxybenzamide] | 6 |  | 1 | 88 | 18 | 29 |  |  |  |  |  |  | 
7 | CNS(=O)(=O)Nc1cccc(Cc2cc(C(N)=O)c(Nc3ccc(C4CC4)cc3F)c(F)c2F)c1F [Compound D-14, 2-(4-Cyclopropyl-2-fluoroanilino)-3,4-difluoro-5-[[2-fluoro-3-(methylsulfamoylamino)phenyl]methyl]benzamide] |  |  |  | 15 |  | 1600 | 7 |  | 117 | 10 |  |  | 
8 | CNS(=O)(=O)Nc1cccc(Cc2cc(C(=O)NOC)c(Nc3ccc(C4CC4)cc3F)c(F)c2F)c1F [Compound D-16, 2-(4-Cyclopropyl-2-fluoroanilino)-3,4-difluoro-5-[[2-fluoro-3-(methylsulfamoylamino)phenyl]methyl]-N-methoxybenzamide] |  |  |  | 51 |  | 48 | 6 |  | 17 | 1 |  |  | 
9 | COCC1(S(=O)(=O)Nc2cccc(Cc3cc(C(=O)NOC)c(Nc4ccc(I)cc4F)c(F)c3F)c2F)CC1 [Compound E-3] |  |  |  |  |  | 33 | 5 |  |  |  | 7 | 4 | 2
10 | CS(=O)(=O)Nc1cccc(Cc2cc(C(N)=O)c(Nc3ccc(I)cc3F)c(F)c2F)c1F [Compound E-13, 3,4-difluoro-2-(2-fluoro-4-iodoanilino)-5-[[2-fluoro-3-(methanesulfonamide)phenyl]methyl]benzamide] |  |  |  |  | 1 |  |  |  |  |  | 84 | 30 | 6
11 | CONC(=O)c1cc(Cc2cccc(NS(C)(=O)=O)c2F)c(F)c(F)c1Nc1ccc(I)cc1F [Compound E-26, 3,4-Difluoro-2-(2-fluoro-4-iodoanilino)-5-[[2-fluoro-3-(methanesulfonamide)phenyl]methyl]-N-methoxybenzamide] | 5 |  | 0.6 | 13 | 6 | 13 |  |  |  |  |  |  | 
12 | CC1(NS(=O)(=O)Nc2nccc(Cc3cc(C(=O)NC4CC4)c(Nc4ccc(C5CC5)cc4F)c(F)c3F)c2F)CCC1 [Compound G-5] |  |  |  | 86 |  | 751 | 78 |  | 374 | 57 |  |  | 
13 | CONC(=O)c1cc(Cc2ccnc(NS(=O)(=O)NC3(C)CCC3)c2F)c(F)c(F)c1Nc1ccc(C2CC2)cc1F [Compound G-6, 2-(4-Cyclopropyl-2-fluoroanilino)-3,4-difluoro-5-[[3-fluoro-2-[(1-methylcyclobutyl)sulfamoylamino]pyridin-4-yl]methyl]-N-methoxybenzamide] | 23 |  | 2 | 57 | 15 | 32 |  |  |  |  |  |  | 
14 | CCS(=O)(=O)Nc1nccc(Cc2cc(C(=O)NOC)c(Nc3ccc(C4CC4)cc3F)c(F)c2F)c1F [Compound G-8, 2-(4-Cyclopropyl-2-fluoroanilino)-5-[[2-(ethylsulfonylamino)-3-fluoropyridin-4-yl]methyl]-3,4-difluoro-N-methoxybenzamide] |  |  |  | 26 |  | 53 | 7 |  | 232 | 25 |  |  | 
15 | CONC(=O)c1cc(Cc2ccnc(NS(C)(=O)=O)c2F)c(F)c(F)c1Nc1ccc(C2CC2)cc1F [Compound G-9, 2-(4-Cyclopropyl-2-fluoroanilino)-3,4-difluoro-5-[[3-fluoro-2-(methanesulfonamide)pyridin-4-yl]methyl]-N-methoxybenzamide] |  |  |  | 22 |  | 230 | 13 |  | 444 | 67 |  |  | 
16 | COCCNS(=O)(=O)Nc1nccc(Cc2cc(C(=O)NC3CC3)c(Nc3ccc(I)cc3F)n(C)c2=O)c1F [Compound J-7, N-Cyclopropyl-2-(2-fluoro-4-iodoanilino)-5-[[3-fluoro-2-(2-methoxyethylsulfamoylamino)pyridin-4-yl]methyl]-1-methyl-6-oxopyridine-3-car boxamide] | 380 |  | 29 | 30 | 12 | 627 |  |  |  |  |  |  | 
17 | CCS(=O)(=O)Nc1cccc(Cc2cc(C(=O)NOC(C)(C)C)c(Nc3ccc(I)cc3F)n(C)c2=O)c1F [Compound K-9] |  |  |  |  |  | 23 | 8 |  |  |  | 34 | 17 | 8
18 | CCS(=O)(=O)Nc1nccc(Cn2cc(C(=O)NC3CC3)c(Nc3ccc(I)cc3F)c(C)c2=O)c1F [Compound P-4, N-Cyclopropyl-1-[[2-(ethylsulfonylamino)-3-fluoropyridin-4-yl]methyl]-4-(2-fluoro-4-iodoanilino)-5-methyl-6-oxopyridine-3-carboxamide] | 45 |  | 24 | 1 | 16 | 34 |  |  |  |  |  |  | 
19 | CNS(=O)(=O)Nc1nccc(Cn2cc(C(=O)NC3CC3)c(Nc3ccc(I)cc3F)c(C)c2=O)c1F [Compound P-6, N-Cyclopropyl-4-(2-fluoro-4-iodoanilino)-1-[[3-fluoro-2-(methylsulfamoylamino)pyridin-4-yl]methyl]-5-methyl-6-oxopyridine-3-carboxamide] | 8 |  | 4 | 4 | 9 | 13 |  |  |  |  |  |  | 
20 | CNS(=O)(=O)Nc1nccc(Cn2cc(C(=O)NOC)c(Nc3ccc(I)cc3F)c(C)c2=O)c1F [Compound P-7, 4-(2-Fluoro-4-iodoanilino)-1-[[3-fluoro-2-(methylsulfamoylamino)pyridin-4-yl]methyl]-N-methoxy-5-methyl-6-oxopyridine-3-carboxamide] | 72 |  | 7 | 12 | 7 | 7 |  |  |  |  |  |  | 
21 | NC(=O)c1c(Nc2ccc(I)cc2F)cncc1Oc1cccc(NS(=O)(=O)C2CC2)c1 [Ref-4, reference compound] | 18 | 2 | 2 | 32 |  | 11 |  |  |  |  |  |  | 
22 | CNS(=O)(=O)Nc1nccc(Cc2c(C)c3ccc(Oc4ncccn4)cc3oc2=O)c1F [Ref-5, 3-[[3-Fluoro-2-(methylsulfamoylamino)pyridin-4-yl]methyl]-4-methyl-7-pyrimidin-2-yloxychromen-2-one, reference compound] | 418 | 113 | 27 | < 1 | 11 |  |  |  |  |  |  |  | 
